Patent publication US11464770B2, “Anticancer pharmaceutical composition” (NATIONAL CANCER CENTER, priority 2016, dated 2022)
Where two headings read alike, the source gives them in different places.

Columns and labels:
[1] = system: lung cancer cell lines (e.g. NCI-H23, NCI-H1229); assay: Cell based assay, cell viability (CellTiter-Glo), lung cancer cell lines; conditions: Homo sapiens, 72 hours treatment, CellTiter-Glo
Method: (§1) Commercially available bladder cancer, prostate cancer, lung cancer, breast cancer, blood cancer, pancreatic cancer, colorectal cancer, brain cancer, neuroblastoma, melanoma, liver cancer, cervical carcinoma, ovarian cancer, renal cancer, and papilloma cell lines were each treated with trypsin-EDTA and cultured, followed by being seeded in each well of a 96 well plate. After 24 hours of treatment at constant temperature, the respective cells were treated with the candidate compound so that a final concentration became 0 to 2 μM. The treated cells were additionally cultured for 72 hours, and cell viability was measured by using an ATP detection method (CellTiter-Glo® Luminescent Cell Viability Assay, Promega).

[2] = system: brain cancer cell lines; assay: Cell based assay, cell viability (CellTiter-Glo), brain cancer cell lines; conditions: Homo sapiens
Method: as §1, with “After 24 hours of treatment at constant temperature, the respective cells were treated with the candidate compound so that a final concentration became 0 to 2 μM.” left out

[3] = system: neuroblastoma cell lines; assay: Cell based assay, cell viability (CellTiter-Glo), neuroblastoma cell lines; conditions: Homo sapiens; SH-SY5Y cell line
Method: as §1

[4] = A549 cells, read-out: IC50, lung cancer cell line A549
[5] = DMS 114 cells, read-out: IC50, lung cancer cell line DMS 114
[6] = NCI-H23 cells, read-out: IC50, lung cancer cell line NCI-H23
[7] = NCI-H460 cells, read-out: IC50, lung cancer cell line NCI-H460
[8] = NCI-H522 cells, read-out: IC50, lung cancer cell line NCI-H522
[9] = NCI-H1299 cells, read-out: IC50, lung cancer cell line NCI-H1299
[10] = NCI-H1437 cells, read-out: IC50, lung cancer cell line NCI-H1437
[11] = U138-MG, U-138 MG cell line, read-out: IC50, Brain cancer cell line U-138 MG
[12] = T98G cell line, read-out: IC50, Brain cancer cell line T98G
[13] = U-251 MG cell line, read-out: IC50, Brain cancer cell line U-251 MG

| SMILES | IC50 [1, 4] [nM] | IC50 [1, 5] [nM] | IC50 ([1]; MRC-5 cells, read-out: IC50) [nM] | IC50 [1, 6] [nM] | IC50 [1, 7] [nM] | IC50 [1, 8] [nM] | IC50 [1, 9] [nM] | IC50 [1, 10] [nM] | IC50 [2, 11] [nM] | IC50 [2, 12] [nM] | IC50 [2, 13] [nM] | IC50 [3] [nM] |
| --- | --- | --- | --- | --- | --- | --- | --- | --- | --- | --- | --- | --- |
| CC(=O)c1c(SCc2ccc([N+](=O)[O-])cc2)[nH]c2c(Br)ccc(Cl)c2c1=O [Compound 32, 3-acetyl-8-bromo-5-chloro-2-((4-nitrobenzyl)thio)quinolin-4(1H)-one] | > 2000 | > 2000 | > 2000 | > 2000 | > 2000 | > 2000 | > 2000 | > 10000 | > 10000 | > 10000 | > 2000 | > 2000 |
| CSc1c(C(C)=O)c(=O)c2c(Cl)ccc(Br)c2n1S(C)(=O)=O [Compound 35, 3-acetyl-8-bromo-5-chloro-1-(methylsulfonyl)-2-(methylthio)quinolin-4(1H)-one] | > 2000 | > 2000 | > 2000 | > 2000 | > 2000 | > 2000 | > 2000 | > 10000 | > 10000 | > 10000 | > 2000 | > 2000 |
| CC(=O)c1c([S+](C)[O-])n(S(=O)(=O)C(F)(F)F)c2c(Br)ccc(Cl)c2c1=O (stereo not drawn) [Compound 36, 3-acetyl-8-bromo-5-chloro-2-(methylsulfinyl)-1-((trifluoromethyl)sulfonyl)quinolin-4(1H)-one] | > 2000 | > 2000 | > 2000 | > 2000 | > 2000 | > 2000 | > 2000 | > 10000 | > 2000 | > 10000 | > 2000 | > 2000 |
| CSc1c(C(C)=O)c(=O)c2c(Cl)ccc(Br)c2n1S(=O)(=O)c1ccc(Cl)cc1 [Compound 37, 3-acetyl-8-bromo-5-chloro-1-((4-chlorophenyl)sulfonyl)-2-(methylthio)quinolin-4(1H)-one] | > 2000 | > 2000 | > 2000 | > 2000 | > 2000 | > 2000 | > 2000 | > 10000 | > 10000 | > 10000 | > 2000 | > 2000 |
| CSc1c(C(C)=O)c(=O)c2c(Cl)ccc(Br)c2n1S(=O)(=O)c1ccc([N+](=O)[O-])cc1 [Compound 38, 3-acetyl-8-bromo-5-chloro-2-(methylthio)-1-((4-nitrophenyl)sulfonyl)quinolin-4(1H)-one] | > 2000 | > 2000 | > 2000 | > 2000 | > 2000 | > 2000 | > 2000 | > 10000 | > 10000 | > 10000 | > 2000 | > 2000 |
| CCS(=O)(=O)n1c([S+](C)[O-])c(C(C)=O)c(=O)c2c(Cl)ccc(Br)c21 (stereo not drawn) [Compound 39, 3-acetyl-8-bromo-5-chloro-1-(ethylsulfonyl)-2-(methylsulfinyl)quinolin-4(1H)-one] | > 2000 | > 2000 | > 2000 | > 2000 | > 2000 | > 2000 | > 2000 | > 10000 | > 10000 | > 10000 | > 2000 | > 2000 |
| CSc1c(C(C)=O)c(=O)c2c(Cl)ccc(Br)c2n1S(=O)(=O)c1ccc(C(C)(C)C)cc1 [Compound 40, 3-acetyl-8-bromo-1-((4-(tert-butyl)phenyl)sulfonyl)-5-chloro-2-(methylthio)quinolin-4(1H)-one] | > 2000 | > 2000 | > 2000 | > 2000 | > 2000 | > 2000 | > 2000 | > 10000 | > 10000 | > 10000 | > 2000 | > 2000 |
| CC(=O)c1c(S(C)(=O)=O)n(S(=O)(=O)c2ccc(C(C)(C)C)cc2)c2c(Br)ccc(Cl)c2c1=O [Compound 41, 3-acetyl-8-bromo-1-((4-(tert-butyl)phenyl)sulfonyl)-5-chloro-2-(methylsulfonyl)quinolin-4(1H)-one] | > 2000 | > 2000 | > 2000 | > 2000 | > 2000 | > 2000 | > 2000 | > 10000 | > 10000 | > 10000 | > 2000 | > 2000 |
| CC(=O)c1c([S+](C)[O-])n(S(=O)(=O)c2ccc(C(C)(C)C)cc2)c2c(Br)ccc(Cl)c2c1=O (stereo not drawn) [Compound 42, 3-acetyl-8-bromo-1-((4-(tert-butyl)phenyl)sulfonyl)-5-chloro-2-(methylsulfinyl)quinolin-4(1H)-one] | > 2000 | > 2000 | > 2000 | 1840 | > 2000 | > 2000 | > 2000 | > 10000 | > 2000 | > 10000 | > 2000 | > 2000 |
